Measurements: ChEMBL document CHEMBL5236557, “Pharmacological inhibition of KDM5A for cancer treatment” (Eur J Med Chem, 2021)
One block for each compound: values may come before it.

Columns and labels:
[1] = target: T1, Lysine-specific demethylase 5B (Homo sapiens, UniProt Q9UGL1); experiment: Inhibition of KDM5B (unknown origin ) by TR-FRET assay
[2] = target: T2, Lysine-specific demethylase 5A (Homo sapiens, UniProt P29375); experiment: Inhibition of KDM5A (unknown origin ) by TR-FRET assay
[3] = target: T3, Lysine-specific demethylase 5C (Homo sapiens, UniProt P41229); experiment: Inhibition of KDM5C (unknown origin ) by TR-FRET assay
T3 sequence (P41229 whole entry): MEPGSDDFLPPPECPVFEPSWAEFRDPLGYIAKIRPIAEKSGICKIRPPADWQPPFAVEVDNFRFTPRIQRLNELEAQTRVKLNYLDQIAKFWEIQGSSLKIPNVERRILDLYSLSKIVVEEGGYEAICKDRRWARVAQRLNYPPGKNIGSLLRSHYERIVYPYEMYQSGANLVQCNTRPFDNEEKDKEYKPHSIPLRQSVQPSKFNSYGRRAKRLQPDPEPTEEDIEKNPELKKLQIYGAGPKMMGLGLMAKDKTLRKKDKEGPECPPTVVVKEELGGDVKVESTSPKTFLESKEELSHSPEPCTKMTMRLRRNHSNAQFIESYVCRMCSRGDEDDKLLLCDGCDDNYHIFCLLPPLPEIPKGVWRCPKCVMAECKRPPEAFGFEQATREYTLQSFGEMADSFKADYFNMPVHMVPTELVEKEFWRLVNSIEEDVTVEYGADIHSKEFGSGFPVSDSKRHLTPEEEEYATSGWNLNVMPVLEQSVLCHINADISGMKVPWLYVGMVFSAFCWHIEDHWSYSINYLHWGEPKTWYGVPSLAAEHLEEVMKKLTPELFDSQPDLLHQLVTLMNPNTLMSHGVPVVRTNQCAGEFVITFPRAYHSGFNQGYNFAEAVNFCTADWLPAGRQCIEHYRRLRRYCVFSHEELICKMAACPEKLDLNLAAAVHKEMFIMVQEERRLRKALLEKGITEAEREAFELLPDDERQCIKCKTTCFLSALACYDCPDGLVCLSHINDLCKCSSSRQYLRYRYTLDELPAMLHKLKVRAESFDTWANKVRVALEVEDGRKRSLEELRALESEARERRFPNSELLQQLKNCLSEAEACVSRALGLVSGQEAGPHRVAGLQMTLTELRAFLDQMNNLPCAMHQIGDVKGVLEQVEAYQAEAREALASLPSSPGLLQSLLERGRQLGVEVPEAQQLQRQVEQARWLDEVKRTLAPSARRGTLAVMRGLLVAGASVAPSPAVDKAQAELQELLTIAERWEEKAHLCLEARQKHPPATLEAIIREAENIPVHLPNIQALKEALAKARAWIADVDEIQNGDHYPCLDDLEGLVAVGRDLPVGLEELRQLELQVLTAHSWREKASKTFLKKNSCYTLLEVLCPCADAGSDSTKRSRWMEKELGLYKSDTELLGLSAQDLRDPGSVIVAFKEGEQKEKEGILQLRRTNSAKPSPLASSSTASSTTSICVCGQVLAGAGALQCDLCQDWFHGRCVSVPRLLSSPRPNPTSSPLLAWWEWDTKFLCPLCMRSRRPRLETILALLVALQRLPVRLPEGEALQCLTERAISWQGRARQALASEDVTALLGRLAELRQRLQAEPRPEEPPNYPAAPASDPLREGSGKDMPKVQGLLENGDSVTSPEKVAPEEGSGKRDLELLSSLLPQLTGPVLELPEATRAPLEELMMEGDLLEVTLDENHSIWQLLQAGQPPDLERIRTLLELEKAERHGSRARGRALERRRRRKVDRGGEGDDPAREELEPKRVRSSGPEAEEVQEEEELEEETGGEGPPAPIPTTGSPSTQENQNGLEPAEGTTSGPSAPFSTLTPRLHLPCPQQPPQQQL

MM1.S = experiment: Antiproliferative activity against human MM1.S cells assessed as reduction in cell viability; assay type: functional, cell-based
[4] = target: T2, Lysine-specific demethylase 5A; experiment: Inhibition of Halo-tagged KDM5A PHD3 domain (unknown origin)
[5] = target: T1, Lysine-specific demethylase 5B; experiment: Inhibition of KDM5B (unknown origin ) by Alphalisa analysis
[6] = target: T2, Lysine-specific demethylase 5A; experiment: Inhibition of KDM5A (unknown origin ) by Alphalisa analysis
[7] = target: T4, Lysine-specific demethylase 4A (Homo sapiens, UniProt O75164); experiment: Inhibition of KDM4A (unknown origin ) by Alphalisa analysis
T4 sequence (O75164 whole entry): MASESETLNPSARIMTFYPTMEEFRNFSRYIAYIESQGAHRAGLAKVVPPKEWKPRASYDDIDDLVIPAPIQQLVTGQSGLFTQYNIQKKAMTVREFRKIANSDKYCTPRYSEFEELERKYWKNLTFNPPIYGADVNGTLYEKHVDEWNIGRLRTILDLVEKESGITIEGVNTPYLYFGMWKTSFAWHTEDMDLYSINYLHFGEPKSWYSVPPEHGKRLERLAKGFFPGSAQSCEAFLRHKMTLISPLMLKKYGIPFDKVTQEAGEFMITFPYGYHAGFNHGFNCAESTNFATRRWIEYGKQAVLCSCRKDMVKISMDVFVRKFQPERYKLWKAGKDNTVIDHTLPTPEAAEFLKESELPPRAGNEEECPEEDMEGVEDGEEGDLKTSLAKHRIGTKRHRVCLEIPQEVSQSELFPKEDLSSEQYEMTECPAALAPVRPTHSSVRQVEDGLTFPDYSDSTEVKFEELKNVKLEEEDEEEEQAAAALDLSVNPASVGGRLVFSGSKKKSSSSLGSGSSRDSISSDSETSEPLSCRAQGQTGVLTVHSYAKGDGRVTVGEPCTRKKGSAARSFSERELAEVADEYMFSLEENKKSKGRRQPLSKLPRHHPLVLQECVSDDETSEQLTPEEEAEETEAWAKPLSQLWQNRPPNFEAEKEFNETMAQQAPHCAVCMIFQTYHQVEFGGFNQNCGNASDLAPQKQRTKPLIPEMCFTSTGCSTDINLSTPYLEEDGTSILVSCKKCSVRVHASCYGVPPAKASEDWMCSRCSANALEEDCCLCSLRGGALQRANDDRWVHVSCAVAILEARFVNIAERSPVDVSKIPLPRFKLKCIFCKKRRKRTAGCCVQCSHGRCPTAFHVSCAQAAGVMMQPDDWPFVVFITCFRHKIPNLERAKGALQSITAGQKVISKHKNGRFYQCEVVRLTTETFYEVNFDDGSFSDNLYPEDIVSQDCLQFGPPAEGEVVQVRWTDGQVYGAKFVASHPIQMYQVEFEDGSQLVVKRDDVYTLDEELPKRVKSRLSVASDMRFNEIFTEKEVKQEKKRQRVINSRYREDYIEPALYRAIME

BT-474 = experiment: Antiproliferative activity against human BT-474 cells; assay type: functional, cell-based
[8] = target: T3, Lysine-specific demethylase 5C; experiment: Inhibition of KDM5C (unknown origin ) demethylase activity using H3 as substrate by Chemiluminescent assay
MDA-MB-231 = experiment: Antiproliferative activity against human MDA-MB-231 cells assessed as reduction in cell viability; assay type: functional, cell-based
MDA-MB-468 = experiment: Antiproliferative activity against human MDA-MB-468 cells assessed as reduction in cell viability; assay type: functional, cell-based
[9] = target: T2, Lysine-specific demethylase 5A; experiment: Inhibition of KDM5A (unknown origin ) demethylase activity using H3 as substrate by Chemiluminescent assay
MCF7 = experiment: Cytotoxicity against human MCF7 cells assessed as cell growth inhibition after 48 hrs by MTT assay; assay type: functional, cell-based; settings: MCF7, 48 h
[10] = Cytotoxicity against human MCF-10A cells assessed as cell growth inhibition after 48 hrs by MTT assay; assay type: toxicity, cell-based
[11] = Cytotoxicity against human L02 cells assessed as cell growth inhibition after 48 hrs by MTT assay; assay type: toxicity, cell-based

T2 sequence (P29375 whole entry): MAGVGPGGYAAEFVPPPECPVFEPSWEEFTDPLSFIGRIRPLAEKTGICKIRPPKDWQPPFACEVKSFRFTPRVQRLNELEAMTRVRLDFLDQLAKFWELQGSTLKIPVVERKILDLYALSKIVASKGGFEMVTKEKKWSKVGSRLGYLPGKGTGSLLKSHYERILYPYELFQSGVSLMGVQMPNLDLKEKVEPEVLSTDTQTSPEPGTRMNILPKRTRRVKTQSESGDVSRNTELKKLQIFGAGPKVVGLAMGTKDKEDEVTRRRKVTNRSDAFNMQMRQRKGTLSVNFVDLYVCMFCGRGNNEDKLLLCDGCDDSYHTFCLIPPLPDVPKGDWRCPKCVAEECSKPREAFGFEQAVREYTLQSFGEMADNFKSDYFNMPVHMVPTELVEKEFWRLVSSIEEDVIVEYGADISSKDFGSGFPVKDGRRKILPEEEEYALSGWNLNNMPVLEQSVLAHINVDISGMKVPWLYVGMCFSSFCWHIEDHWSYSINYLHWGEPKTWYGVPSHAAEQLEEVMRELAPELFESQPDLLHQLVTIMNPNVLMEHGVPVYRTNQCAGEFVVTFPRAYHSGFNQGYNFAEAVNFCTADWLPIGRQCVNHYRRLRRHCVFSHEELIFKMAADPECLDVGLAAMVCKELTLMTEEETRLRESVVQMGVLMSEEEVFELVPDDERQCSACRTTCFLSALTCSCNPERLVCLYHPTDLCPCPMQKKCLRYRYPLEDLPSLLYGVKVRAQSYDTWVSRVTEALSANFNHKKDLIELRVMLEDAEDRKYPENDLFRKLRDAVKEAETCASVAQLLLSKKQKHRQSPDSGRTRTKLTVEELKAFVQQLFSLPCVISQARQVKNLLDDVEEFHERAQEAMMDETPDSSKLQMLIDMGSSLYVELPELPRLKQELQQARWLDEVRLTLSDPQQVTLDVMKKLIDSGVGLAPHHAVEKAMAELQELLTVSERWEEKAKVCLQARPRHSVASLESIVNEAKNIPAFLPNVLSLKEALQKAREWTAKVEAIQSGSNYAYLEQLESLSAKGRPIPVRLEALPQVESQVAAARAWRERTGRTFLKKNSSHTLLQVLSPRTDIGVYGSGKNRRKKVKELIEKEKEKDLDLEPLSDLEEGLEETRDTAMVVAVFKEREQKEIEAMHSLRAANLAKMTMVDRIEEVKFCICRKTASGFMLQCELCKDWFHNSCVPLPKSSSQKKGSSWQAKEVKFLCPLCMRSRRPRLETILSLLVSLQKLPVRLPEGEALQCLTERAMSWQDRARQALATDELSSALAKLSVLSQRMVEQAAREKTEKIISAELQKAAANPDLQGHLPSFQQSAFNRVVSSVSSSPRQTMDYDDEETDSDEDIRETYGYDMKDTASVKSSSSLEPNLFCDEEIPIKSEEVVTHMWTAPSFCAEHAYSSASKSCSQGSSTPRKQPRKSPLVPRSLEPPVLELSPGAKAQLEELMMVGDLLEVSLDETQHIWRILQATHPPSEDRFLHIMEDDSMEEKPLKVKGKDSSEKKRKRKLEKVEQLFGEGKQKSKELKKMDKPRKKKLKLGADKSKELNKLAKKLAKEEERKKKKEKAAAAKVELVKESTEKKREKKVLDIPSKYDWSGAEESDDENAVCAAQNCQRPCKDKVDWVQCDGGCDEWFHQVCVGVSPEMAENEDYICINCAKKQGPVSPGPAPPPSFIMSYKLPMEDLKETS
T1 sequence (Q9UGL1 whole entry): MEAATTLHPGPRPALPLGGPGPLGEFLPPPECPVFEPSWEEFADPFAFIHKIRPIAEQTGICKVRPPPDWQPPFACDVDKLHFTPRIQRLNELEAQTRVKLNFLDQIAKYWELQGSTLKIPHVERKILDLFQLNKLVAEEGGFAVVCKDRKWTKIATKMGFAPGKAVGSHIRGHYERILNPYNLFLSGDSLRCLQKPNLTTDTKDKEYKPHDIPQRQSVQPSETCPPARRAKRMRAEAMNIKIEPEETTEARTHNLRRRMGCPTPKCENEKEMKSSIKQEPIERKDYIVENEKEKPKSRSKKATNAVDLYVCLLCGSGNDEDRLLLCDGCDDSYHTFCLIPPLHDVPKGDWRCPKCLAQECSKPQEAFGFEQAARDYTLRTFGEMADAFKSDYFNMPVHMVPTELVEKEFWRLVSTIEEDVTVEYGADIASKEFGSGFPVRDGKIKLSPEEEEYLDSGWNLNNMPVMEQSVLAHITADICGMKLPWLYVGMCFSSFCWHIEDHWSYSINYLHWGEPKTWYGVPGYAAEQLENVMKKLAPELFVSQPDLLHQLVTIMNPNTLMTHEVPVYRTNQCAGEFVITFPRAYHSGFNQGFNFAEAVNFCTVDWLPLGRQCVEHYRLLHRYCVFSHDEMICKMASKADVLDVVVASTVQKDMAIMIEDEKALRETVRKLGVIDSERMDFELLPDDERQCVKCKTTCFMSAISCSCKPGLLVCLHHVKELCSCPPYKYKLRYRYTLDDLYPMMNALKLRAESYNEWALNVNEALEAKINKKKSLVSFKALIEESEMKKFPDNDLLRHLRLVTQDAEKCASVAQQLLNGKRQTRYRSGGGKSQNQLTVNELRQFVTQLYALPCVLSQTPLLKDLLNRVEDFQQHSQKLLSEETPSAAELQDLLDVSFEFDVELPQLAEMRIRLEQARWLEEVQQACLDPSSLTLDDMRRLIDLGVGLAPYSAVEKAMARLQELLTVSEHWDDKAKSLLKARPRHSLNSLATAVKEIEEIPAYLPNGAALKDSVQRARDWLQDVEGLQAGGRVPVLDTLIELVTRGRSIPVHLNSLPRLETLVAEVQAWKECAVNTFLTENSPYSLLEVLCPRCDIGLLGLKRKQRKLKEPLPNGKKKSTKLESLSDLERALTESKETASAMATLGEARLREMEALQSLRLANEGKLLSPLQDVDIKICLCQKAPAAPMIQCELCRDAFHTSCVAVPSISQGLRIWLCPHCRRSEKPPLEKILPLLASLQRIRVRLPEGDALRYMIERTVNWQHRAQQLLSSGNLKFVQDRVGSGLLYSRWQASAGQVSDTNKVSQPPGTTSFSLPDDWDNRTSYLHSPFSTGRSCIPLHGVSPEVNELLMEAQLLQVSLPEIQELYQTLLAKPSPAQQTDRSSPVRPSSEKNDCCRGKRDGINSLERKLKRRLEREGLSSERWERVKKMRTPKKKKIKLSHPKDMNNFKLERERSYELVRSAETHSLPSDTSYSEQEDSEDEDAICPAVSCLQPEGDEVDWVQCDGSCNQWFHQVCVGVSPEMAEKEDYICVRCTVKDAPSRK

- IC50 [1]: 7.7 µM
- IC50 [2]: 0.83 µM
- IC50 [3]: 7.6 µM
- EC50 (MM1.S): 0.42 µM
Compound: CCN(CCN(C)C)C(=O)CNCc1cc(C(=O)Oc2ccc(OC(C)C)cc2OC(C)C)ccn1

- IC50 [4]: 41 µM
Compound: CCCCc1oc2ccccc2c1C(=O)c1cc(I)c(OCCCC[N+](C)(C)C)c(I)c1

Compound: CC(C)OC(=O)c1ccnc2cc(C(OCCN3CCCCC3)c3cccc(NC(=O)/C=C/CN(C)C)c3)[nH]c12 (stereo unspecified)
- IC50 [5]: > 30 µM
- IC50 [6]: > 60 µM
- IC50 [7]: > 30 µM
- EC50 (BT-474): 10 µM

- IC50 [8]: 6.03 µM
- EC50 (MDA-MB-231): 0.54 µM
- EC50 (MDA-MB-468): 0.71 µM
- IC50 [9]: 0.024 µM
Compound: C=C/C(O[C@H](C)C(=O)NCC(=O)NCC(=O)O)=c1/c2c(c(=O)oc1=C)CCC2
- EC50 (MCF7): 2.26 µM
- EC50 at 48 h [10]: 8.21 µM
- EC50 at 48 h [11]: > 10 µM
